Experiment [1] deals with Thoracic aortic rings. In words: Thoracic aortic rings assay. Also noted: species or system rat. Conditions: relaxation of rat thoracic aortic rings contracted with 100 ng/mL phenylephrine; read-out: Aortic Ring EC50. The procedure:
Thoracic aortic rings were dissected from anesthetized (isoflurane) male Sprague-Dawley rats weighing 275-299 g. Tissues were immediately transferred to ice-cold Krebs-Henseleit solution, which had been aerated with 95% O2 and 5% CO2 for 30 minutes. Following removal of connective tissue, aortic sections were cut into 4 rings (˜2 mm each) and suspended on 2 L-shaped hooks, with one hook fixed at the bottom of the tissue bath (Schuler Organ Bath, Harvard Apparatus) and the other connected to a force transducer (F30 Force Transducer, Harvard Apparatus). Baths contained Krebs Henseleit solution (10 mL) heated to 37° C. and aerated with 95% O2 and 5% CO2. Rings were brought to an initial tension of 0.3-0.5 g and gradually raised to a resting tension of 1.0 g over 60 minutes. Rings were rinsed with Krebs Henseleit solution (heated to 37° C. and aerated with 95% 02 and 5% CO2) at 15 minute intervals until a stable baseline was obtained. Rings were considered to be stable after a resting tension of 1.0 g was maintained (for approximately 10 minutes) without need for adjustment. Rings were then contracted with 100 ng/mL phenylephrine by adding 100 μL of a 10 μg/mL phenylephrine stock solution. Tissues achieving a stable contraction were then treated in a cumulative, dose dependent manner with test compounds prepared in dimethylsulfoxide (DMSO). In some cases, tissues were rinsed three times over a 5 minute period with Krebs-Heinseleit's solution (heated to 37° C. and aerated with 95% 02 and 5% CO2), allowed to stabilize at baseline, and then used for characterization of other test articles or DMSO effects. All data were collected using the HSE-ACAD software provided by Harvard Apparatus. Percent relaxation effects were calculated in Microsoft Excel using the recorded tension value of 100 ng/mL phenylephrine treatment as 0% inhibition and, after washing the tissue with buffer, the original resting tension of tissue is used as 100% inhibition. EC50 values were calculated from concentration-response curves generated with GraphPad Prism Software.
The biological data for some of the compounds of Formula IA and Formula IB, in comparison with the prior art compound, BAY 41-2272, as the reference compound, determined by the thoracic aorta ring assay are presented in Table 6 below.

The target in experiment [2] is T1, Human soluble guanylate cyclase enzyme (hsGC) (Homo sapiens, UniProt Q02108+Q02153).
T1 construct: purchased Enzo Inc. ALX-201-177
T1 sequence (Q02153 1-619): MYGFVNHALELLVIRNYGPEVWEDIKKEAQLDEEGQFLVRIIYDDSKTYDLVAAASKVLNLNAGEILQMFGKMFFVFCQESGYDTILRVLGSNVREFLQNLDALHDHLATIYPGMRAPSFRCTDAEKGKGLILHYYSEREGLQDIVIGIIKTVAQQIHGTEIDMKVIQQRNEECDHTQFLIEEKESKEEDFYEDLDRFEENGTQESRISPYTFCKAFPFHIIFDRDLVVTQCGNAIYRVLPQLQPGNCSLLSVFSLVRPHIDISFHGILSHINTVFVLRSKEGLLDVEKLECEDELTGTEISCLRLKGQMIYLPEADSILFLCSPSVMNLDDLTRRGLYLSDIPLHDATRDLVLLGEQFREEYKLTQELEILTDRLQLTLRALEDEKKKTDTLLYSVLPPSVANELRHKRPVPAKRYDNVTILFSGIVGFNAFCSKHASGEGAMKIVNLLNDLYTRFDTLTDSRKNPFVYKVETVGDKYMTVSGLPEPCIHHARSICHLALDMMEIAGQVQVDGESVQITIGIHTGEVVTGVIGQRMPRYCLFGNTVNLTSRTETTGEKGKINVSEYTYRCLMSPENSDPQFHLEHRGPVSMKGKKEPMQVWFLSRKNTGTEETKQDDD
T1 sequence (Q02108 1-690): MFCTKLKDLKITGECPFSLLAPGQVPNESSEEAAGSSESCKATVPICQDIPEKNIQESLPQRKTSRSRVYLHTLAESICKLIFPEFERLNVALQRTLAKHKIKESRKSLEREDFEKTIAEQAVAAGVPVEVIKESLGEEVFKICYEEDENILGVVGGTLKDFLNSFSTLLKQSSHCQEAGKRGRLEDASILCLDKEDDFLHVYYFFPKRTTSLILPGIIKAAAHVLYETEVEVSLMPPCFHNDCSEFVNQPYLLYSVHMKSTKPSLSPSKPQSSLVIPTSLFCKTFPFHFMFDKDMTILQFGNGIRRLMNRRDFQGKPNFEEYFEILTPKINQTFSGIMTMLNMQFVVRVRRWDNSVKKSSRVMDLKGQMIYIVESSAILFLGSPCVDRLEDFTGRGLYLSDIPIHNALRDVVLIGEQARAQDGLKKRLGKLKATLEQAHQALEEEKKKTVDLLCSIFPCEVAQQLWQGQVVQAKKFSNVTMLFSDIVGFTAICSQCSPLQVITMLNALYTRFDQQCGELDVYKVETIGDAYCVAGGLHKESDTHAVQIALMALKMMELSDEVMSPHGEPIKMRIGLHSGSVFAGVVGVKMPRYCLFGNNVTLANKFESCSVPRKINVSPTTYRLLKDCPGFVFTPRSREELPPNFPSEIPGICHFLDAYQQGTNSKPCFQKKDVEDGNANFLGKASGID
In words: Purified human sGC enzyme activity assay (with or without SNP). It is filed as biochemical. The conditions noted are these: 30 μM compound; for sGC Enzyme Activity Increase at 30 μM with SNP: 1 μM SNP, specific activity vs DMSO and SNP; for sGC Enzyme Activity Increase at 30 μM without SNP: specific activity vs DMSO control. The procedure, abridged: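 Purified human sGC (5 ng) incubated 30 min at 37° C with compound at 10 or 30 μM, 300 μM GTP, 2 mM MgCl2 and 1 mM IBMX at pH 8.0, with or without 1 μM SNP. cGMP formed was quantified against a standard curve. Results are given as fold-change in specific activity over DMSO (or DMSO+SNP) control.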

For experiment [3], the target named is T2, soluble guanylate cyclase (sGC) (Homo sapiens, UniProt Q02108+Q02153).
T2 construct: endogenously expressing soluble guanylate cyclase (sGC); endogenous in cells; host or cells: HEK293
T2 sequence (Q02153 1-619): T1 sequence (Q02153 1-619)
T2 sequence (Q02108 1-690): T1 sequence (Q02108 1-690)
In words: sGC-HEK-cGMP assay. It is filed as cell-based. The conditions noted are these: HEK293 cells, 10 μM SNP, percentage of sGC activity obtained with positive control BAY 41-2272 (= 100%); for Emax at 10 µM: compound at 10 μM; for Emax at 30 µM: compound at 30 μM. The procedure, abridged: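 HEK293 cells endogenously expressing sGC, preincubated 15 min at 37 °C with 0.5 mM IBMX, then exposed to compound plus 10 μM sodium nitroprusside for 10 min at 37 °C. Reaction stopped and cells lysed with 0.1 M HCl; cGMP quantified by LC/MS against a standard curve; EC50 from concentration-response curves.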

A value given as a limit tells only on which side of the number the result lay.

With `Nc1nc(-c2nn(Cc3ccccc3F)c3ncccc23)ncc1C1CC1` [BAY-41-2272, reference compound], the EC50 in experiment [1] is < 1000 nM.
`Fc1ccccc1Cn1nc(-c2ccccn2)nc1C1CCC1` [Compound I-24]: in experiment [2], the “sGC Enzyme Activity Increase at 30 μM with SNP” value is “C (C = 2 to <5 fold increase)” and the “sGC Enzyme Activity Increase at 30 μM without SNP” value is recorded as “C (C = 2 to <5 fold increase)”. In addition, in experiment [3], the Emax at 10 µM fell in the range of 5 to 10% and the Emax at 30 µM was in the range of 10 to 20%.
With `Fc1ccccc1Cn1nc(-c2ncccn2)nc1-c1ccco1` [Compound I-11], in experiment [2], the “sGC Enzyme Activity Increase at 30 μM with SNP” value was “C (C = 2 to <5 fold increase)” and the “sGC Enzyme Activity Increase at 30 μM without SNP” value is “C (C = 2 to <5 fold increase)”. Moreover, in experiment [3], the Emax at 10 µM was 10 to 20% and the Emax at 30 µM lay within 10 to 20%.
For `Fc1ccccc1Cn1nc(-c2ccccn2)nc1-c1ccon1` [Compound I-58, 3-(1-(2-fluorobenzyl)-3-(pyridin-2-yl)-1H-1,2,4-triazol-5-yl)isoxazole], in experiment [2], the “sGC Enzyme Activity Increase at 30 μM with SNP” value is reported as “D (D = 5 to <10 fold increase)” and the “sGC Enzyme Activity Increase at 30 μM without SNP” value is recorded as “C (C = 2 to <5 fold increase)”. In experiment [3], this compound returned an Emax at 10 µM of 40 to 60% and an Emax at 30 µM of 60 to 80%.
In the case of `Fc1ccccc1Cn1nc(-c2ccccn2)nc1-c1nnco1` [Compound I-42, 2-(1-(2-fluorobenzyl)-3-(pyridin-2-yl)-1H-1,2,4-triazol-5-yl)-1,3,4-oxadiazole], in experiment [2], the “sGC Enzyme Activity Increase at 30 μM with SNP” value was “C (C = 2 to <5 fold increase)” and the “sGC Enzyme Activity Increase at 30 μM without SNP” value was “B (B = 1 to <2 fold increase)”. In addition, in experiment [3], the Emax at 10 µM fell in the range of 0 to 5% and the Emax at 30 µM is 5 to 10%.

The values above are taken from patent US9061030B2, “sGC stimulators” (IRONWOOD PHARMACEUTICALS, INC., priority 2010, dated 2015).
